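Cells were grown in 96-well plates and exposed to each compound for 48 hours at five concentrations; endpoints were interpolated linearly between bracketing concentrations, or set to the highest concentration if not reached. Here, GI50 denotes the concentration required for 50% inhibition of growth.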 Active and inactive are the calls of the source. Cut-off read from the data, not from the text of the source: active = GI50 up to about 1.1 µM and inactive = higher.
Tests used:
Assay in all cases: NCI anticancer screen, dose series, 48 h
NCI-H460 = system: NCI-H460
OVCAR-4 = system: OVCAR-4
TK-10 = system: TK-10
UACC-257 = system: UACC-257
SK-OV-3 = system: SK-OV-3
HCC 2998 = system: HCC 2998
IGROV-1 = system: IGROV-1
MOLT-4 = system: MOLT-4
LOX IMVI = system: LOX IMVI
SF-539 = system: SF-539
U-251 = system: U-251
Malme-3M = system: Malme-3M
SF-268 = system: SF-268
SW-620 = system: SW-620
RPMI-8226 = system: RPMI-8226
SK-MEL-5 = system: SK-MEL-5
SN12C = system: SN12C
A549 = system: A549
OVCAR-5 = system: OVCAR-5
NCI-H226 = system: NCI-H226

SMILES	GI50 (NCI-H460)	GI50 (OVCAR-4)	GI50 (TK-10)	GI50 (UACC-257)	GI50 (SK-OV-3)	GI50 (HCC 2998)	GI50 (IGROV-1)	GI50 (MOLT-4)	GI50 (LOX IMVI)	GI50 (SF-539)	GI50 (U-251)	GI50 (Malme-3M)	GI50 (SF-268)	GI50 (SW-620)	GI50 (RPMI-8226)	GI50 (SK-MEL-5)	GI50 (SN12C)	GI50 (A549)	GI50 (OVCAR-5)	GI50 (NCI-H226)
CCC1OC2C(CC=C(C)C)=C3OC(C)(O)C(C)(CC)C(OC(C)=O)C3=C3OC(=O)C=C1C32 (stereo not given)	30.9 µM (inactive)	32.4 µM (inactive)	34.4 µM (inactive)	22.2 µM (inactive)	33.6 µM (inactive)	24 µM (inactive)	26.4 µM (inactive)	22.7 µM (inactive)	21.3 µM (inactive)	19.6 µM (inactive)	30.3 µM (inactive)	21.4 µM (inactive)	31.4 µM (inactive)	53.7 µM (inactive)	22.1 µM (inactive)	20.4 µM (inactive)	20.4 µM (inactive)	31.6 µM (inactive)	22 µM (inactive)	–
CCOP(=O)(CN=C(c1ccccc1)c1ccccc1)OCC	> 100 µM (inactive)	> 100 µM (inactive)	> 100 µM (inactive)	> 100 µM (inactive)	> 100 µM (inactive)	> 100 µM (inactive)	> 100 µM (inactive)	> 100 µM (inactive)	> 100 µM (inactive)	–	> 100 µM (inactive)	–	–	> 100 µM (inactive)	> 100 µM (inactive)	> 100 µM (inactive)	> 100 µM (inactive)	> 100 µM (inactive)	> 100 µM (inactive)	> 100 µM (inactive)
N#Cc1c(NC(=S)NC(=O)c2ccccc2)nc2c(c1-c1ccccc1)CCCC2	> 100 µM (inactive)	22.5 µM (inactive)	> 100 µM (inactive)	> 100 µM (inactive)	31.4 µM (inactive)	–	> 100 µM (inactive)	> 100 µM (inactive)	> 100 µM (inactive)	–	> 100 µM (inactive)	> 10 µM (inactive)	0.299 µM (active)	> 100 µM (inactive)	> 100 µM (inactive)	73.6 µM (inactive)	> 10 µM (inactive)	> 100 µM (inactive)	> 100 µM (inactive)	–
C=CCC12CC(=O)C=C1CCC1(C2)OCCO1 (stereo not given)	> 100 µM (inactive)	> 100 µM (inactive)	> 100 µM (inactive)	> 100 µM (inactive)	> 100 µM (inactive)	> 100 µM (inactive)	> 100 µM (inactive)	> 100 µM (inactive)	–	> 100 µM (inactive)	> 100 µM (inactive)	> 100 µM (inactive)	> 100 µM (inactive)	> 100 µM (inactive)	> 100 µM (inactive)	> 100 µM (inactive)	> 100 µM (inactive)	> 100 µM (inactive)	–	> 100 µM (inactive)
CSCCC(NC(=O)OCc1ccccc1)P(=O)(O)c1ccccc1 (stereo not given)	> 100 µM (inactive)	> 100 µM (inactive)	> 100 µM (inactive)	> 100 µM (inactive)	> 100 µM (inactive)	> 100 µM (inactive)	> 100 µM (inactive)	> 100 µM (inactive)	> 100 µM (inactive)	–	> 100 µM (inactive)	–	–	> 100 µM (inactive)	> 100 µM (inactive)	> 100 µM (inactive)	> 100 µM (inactive)	> 100 µM (inactive)	> 100 µM (inactive)	> 100 µM (inactive)
Nc1ccc(N(S(=O)(=O)c2ccccc2)S(=O)(=O)c2ccccc2)c(Cl)c1	34.8 µM (inactive)	75.3 µM (inactive)	55.1 µM (inactive)	34.3 µM (inactive)	–	18.5 µM (inactive)	62.1 µM (inactive)	14.2 µM (inactive)	68.1 µM (inactive)	69 µM (inactive)	39.3 µM (inactive)	42.5 µM (inactive)	69.2 µM (inactive)	42.9 µM (inactive)	28.7 µM (inactive)	20.1 µM (inactive)	75.9 µM (inactive)	50.5 µM (inactive)	> 100 µM (inactive)	73.5 µM (inactive)
CC(C)(C)/N=c1/n(C(C)(C)C)oc(=O)n1C(C)(C)C	> 100 µM (inactive)	> 100 µM (inactive)	> 100 µM (inactive)	> 100 µM (inactive)	> 100 µM (inactive)	> 100 µM (inactive)	> 100 µM (inactive)	> 100 µM (inactive)	> 100 µM (inactive)	> 100 µM (inactive)	> 100 µM (inactive)	> 100 µM (inactive)	–	> 100 µM (inactive)	–	> 100 µM (inactive)	> 100 µM (inactive)	> 100 µM (inactive)	> 100 µM (inactive)	> 100 µM (inactive)

— ChEMBL document CHEMBL1201862, “PubChem BioAssay data set” (2004)
